Test results published in ChEMBL document CHEMBL1201862, “PubChem BioAssay data set” (2004).
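Five concentrations, 48 hours, 96-well plates. At the GI50, growth is halved.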 The source made the active and inactive calls. Cut-off read from the data, not from the text of the source: active = GI50 up to about 1.1 µM and inactive = higher.

Experiments:
Experiment in all cases: NCI tumour cell line growth inhibition, 48 h
KM12 = system: KM12
MCF7 = system: MCF7
SK-MEL-5 = system: SK-MEL-5
M14 = system: M14
A549 = system: A549
DU-145 = system: DU-145
HCT-15 = system: HCT-15
SW-620 = system: SW-620
NCI/ADR-RES = system: NCI/ADR-RES
OVCAR-4 = system: OVCAR-4
MOLT-4 = system: MOLT-4
HOP-62 = system: HOP-62
SF-268 = system: SF-268
HCT-116 = system: HCT-116
NCI-H460 = system: NCI-H460
UACC-257 = system: UACC-257
CAKI-1 = system: CAKI-1
MDA-MB-435 = system: MDA-MB-435
HT-29 = system: HT-29
MDA-MB-231 = system: MDA-MB-231
LOX IMVI = system: LOX IMVI
EKVX = system: EKVX
OVCAR-8 = system: OVCAR-8
K562 = system: K562
T47D = system: T47D
SK-MEL-2 = system: SK-MEL-2
ACHN = system: ACHN
SR = system: SR
UACC-62 = system: UACC-62
SK-MEL-28 = system: SK-MEL-28
COLO 205 = system: COLO 205
RPMI-8226 = system: RPMI-8226
BT-549 = system: BT-549
HOP-92 = system: HOP-92
TK-10 = system: TK-10
OVCAR-5 = system: OVCAR-5
NCI-H23 = system: NCI-H23
786-0 = system: 786-0
SNB-19 = system: SNB-19
UO-31 = system: UO-31
OVCAR-3 = system: OVCAR-3
HCC 2998 = system: HCC 2998
NCI-H226 = system: NCI-H226
Malme-3M = system: Malme-3M
PC-3 = system: PC-3
SF-539 = system: SF-539
U-251 = system: U-251
IGROV-1 = system: IGROV-1

Measured: GI50

CC1(C)COC(c2cccc(C3=NC(C)(C)CO3)c2)=N1
> 100 µM: HCT-15
inactive: KM12 > 100 µM | MCF7 > 100 µM | SK-MEL-5 > 100 µM | M14 > 100 µM | A549 > 100 µM | DU-145 > 100 µM | SW-620 > 100 µM | NCI/ADR-RES > 100 µM | OVCAR-4 83.9 µM | MOLT-4 > 100 µM | HOP-62 > 100 µM | SF-268 > 100 µM | HCT-116 > 100 µM | NCI-H460 > 100 µM | UACC-257 > 100 µM | CAKI-1 > 100 µM | MDA-MB-435 > 100 µM | HT-29 > 100 µM | MDA-MB-231 > 100 µM | LOX IMVI > 100 µM | EKVX > 100 µM | OVCAR-8 > 100 µM | K562 > 100 µM | T47D 3.75 µM | SK-MEL-2 > 100 µM | ACHN > 100 µM | SR > 100 µM | UACC-62 64.3 µM | SK-MEL-28 > 100 µM | COLO 205 > 100 µM | RPMI-8226 > 100 µM | BT-549 > 100 µM | HOP-92 > 100 µM | TK-10 > 100 µM | OVCAR-5 > 100 µM | NCI-H23 > 100 µM | 786-0 > 100 µM | SNB-19 > 100 µM | UO-31 > 100 µM | HCC 2998 > 100 µM | NCI-H226 > 100 µM | Malme-3M > 100 µM | PC-3 > 100 µM | SF-539 > 100 µM | U-251 > 100 µM | IGROV-1 > 100 µM
active: OVCAR-3 0.0375 µM
